Legend:
[1] = test system: spontaneously hypertension rats (SHRs); experiment: chronic experiment: blood pressure, heart rate and aorta histology after 14-day oral administration in SHRs; type: in vivo, rat; settings: for DBP: 14 days (SHRs 130 ± 5); for MAP: 14 days (SHRs 151 ± 5); for SBP: 14 days (SHRs 172 ± 6)
Protocol: The SHRs were surgically implanted with a catheter via the left femoral artery, vein, and stomach after anesthetizing with 2% pentobarbital sodium (40 mg kg^−1 i.p.,). A pressure sensor was inserted into the terminal of the arterial catheter and connected to a PowerLab system (ADInstruments, New South Wales, Australia) for real-time blood pressure monitoring.
(§1) All three MDAs (BAC, BMC, and BHC) were purchased from Nature-Standard Co., Ltd. (Shanghai, China) and their purities were all over 98%. The anti-hypertensive effects of MDAs were studied in both acute and chronic experiments. The 16-week-old SHRs were used in animal experiments, and each group had six rats. In the acute experiment, drug administration was via i.v. injection. For i.v. injection, the animals were randomly assigned into four groups: vehicle (0.1% DMSO–0.9% salt solution, n = 6), low-dose group (0.6 mg kg^−1 body weight, n = 6), medium-dose group (2 mg kg^−1 body weight, n = 6), and high-dose group (6 mg kg^−1 body weight, n = 6). The drug was administered using a venous catheter. In chronic experiments, the animals were randomly assigned into five groups: vehicle (5% Tween 80–0.9% salt solution, n = 6), captopril group (5 mg kg^−1 body weight, n = 6), low-dose group (3 mg kg^−1 body weight, n = 6), medium-dose group (10 mg kg^−1 body weight, n = 6), and high-dose group (30 mg kg^−1 body weight, n = 6). Oral administration with drug or 5% Tween 80–0.9% salt solution was carried out once a day, and continued for 14 days. The drugs were dissolved in 0.1% DMSO–0.9% salt solution for intravenous injection and in 5% Tween 80–0.9% salt solution for oral administration. Blood pressure was recorded in real time.
Real-time blood pressure level was monitored after drug treatment in the acute and chronic experiments. All animals were surgically implanted with a catheter in the left femoral artery. After connection to the monitor, all animals were placed at room temperature of 25°C for 0.5–1 h and the average blood pressure value was calculated based on a real-time blood pressure curve (10 s of every 30 s).
After euthanizing the rats with sodium pentobarbital (100 mg kg^−1, i.p.) administration in combination with isoflurane inhalation, the aortas were harvested directly according to a previously described method. The aortas were fixed in 4% paraformaldehyde for 24 h and embedded in paraffin. The cross-sections (5 μm) were stained with hematoxylin and eosin or subjected to immunostaining. Immunofluorescence staining for ACE and ACE2 was performed according to the manufacturer’s instructions (Servicebio, Wuhan, China).

[2] = target: T1, recombinant human ACE (rhACE) (Homo sapiens, UniProt P12821); experiment: SPR assay with rhACE; type: binding; settings: rhACE on chip, 5% DMSO–1.05× PBS
T1 construct: purchased Proteintech
Protocol: To screen the potential targets of the MDAs in hypertension, a CVDPlatform (www.cbligand.org/CVD) was used as previously reported ([Zhang et al., 2016a]). The results of database screening were verified by virtual docking with Discovery Studio 3.5 (BIOVIA, San Diego, CA, United States) and then validated in the SPR assay. In the SPR assay, a solution of protein standards was prepared, and the concentration of recombinant human ACE (rhACE) protein and rhACE2 (Proteintech, Rosemont, IL, United States) solution was set to 500 μg ml^−1. […] Finally, the level of binding between the proteins and each molecule was determined based on the K d value.

ACE [3] = experiment: serum ACE by ELISA in SHRs after 14-day oral administration; type: in vivo, rat; settings: oral 14 days
Excerpt: (§2) All three MDAs (BAC, BMC, and BHC) were purchased from Nature-Standard Co., Ltd. (Shanghai, China) and their purities were all over 98%. The anti-hypertensive effects of MDAs were studied in both acute and chronic experiments. The 16-week-old SHRs were used in animal experiments, and each group had six rats. In the acute experiment, drug administration was via i.v. injection. For i.v. injection, the animals were randomly assigned into four groups: vehicle (0.1% DMSO–0.9% salt solution, n = 6), low-dose group (0.6 mg kg^−1 body weight, n = 6), medium-dose group (2 mg kg^−1 body weight, n = 6), and high-dose group (6 mg kg^−1 body weight, n = 6). The drug was administered using a venous catheter. […] Blood pressure was recorded in real time.
(§3) Blood samples were collected from the left femoral artery of rats at the end point, followed by centrifugation at 1,000 × g for 15 min at 4°C. […] The concentrations of circulating ACE, ACE2, Ang I, Ang II, Ang (1–7), TNF-α, and IL-6 in serum were measured using the ELISA kits [ACE, cat#xy-R2401c, X-Y Biotechnology, Shanghai, China; ACE2, cat#xy-ACE2-Ra, X-Y Biotechnology; Ang I, cat#xy-E12541, X-Y Biotechnology; Ang II, cat#xy-R1430c, X-Y Biotechnology; Ang (1–7), cat#xy-Ang1-7-Ra, X-Y Biotechnology; TNF-α, cat#GM1149, Servicebio, Shanghai, China; IL-6, cat#GM1154, Servicebio] according to the manufacturer’s instructions. […]

Ang II = experiment: serum Ang II by ELISA in SHRs after 14-day oral administration; type: in vivo, rat; settings: oral 14 days
Excerpt: as §2, §3

ACE [4] = experiment: ACE expression in aorta of SHRs (Western blot, tissue immunofluorescence); type: in vivo, rat; settings: oral 14 days
Excerpt: as §1, with “The drugs were dissolved in 0.1% DMSO–0.9% salt solution for intravenous injection and in 5% Tween 80–0.9% salt solution for oral administration.” left out, “time. […]” for “time.”
The cell samples and tissue sample were collected and placed in ice rapidly. […] Protein concentration in cell lysates was measured using a Bio-Rad DC Protein Assay Kit […]. […]

IL-6 = experiment: serum IL-6 by ELISA in SHRs; type: in vivo, rat; settings: oral 14 days
Excerpt: as §2, §3

T1 sequence (P12821 30-1306): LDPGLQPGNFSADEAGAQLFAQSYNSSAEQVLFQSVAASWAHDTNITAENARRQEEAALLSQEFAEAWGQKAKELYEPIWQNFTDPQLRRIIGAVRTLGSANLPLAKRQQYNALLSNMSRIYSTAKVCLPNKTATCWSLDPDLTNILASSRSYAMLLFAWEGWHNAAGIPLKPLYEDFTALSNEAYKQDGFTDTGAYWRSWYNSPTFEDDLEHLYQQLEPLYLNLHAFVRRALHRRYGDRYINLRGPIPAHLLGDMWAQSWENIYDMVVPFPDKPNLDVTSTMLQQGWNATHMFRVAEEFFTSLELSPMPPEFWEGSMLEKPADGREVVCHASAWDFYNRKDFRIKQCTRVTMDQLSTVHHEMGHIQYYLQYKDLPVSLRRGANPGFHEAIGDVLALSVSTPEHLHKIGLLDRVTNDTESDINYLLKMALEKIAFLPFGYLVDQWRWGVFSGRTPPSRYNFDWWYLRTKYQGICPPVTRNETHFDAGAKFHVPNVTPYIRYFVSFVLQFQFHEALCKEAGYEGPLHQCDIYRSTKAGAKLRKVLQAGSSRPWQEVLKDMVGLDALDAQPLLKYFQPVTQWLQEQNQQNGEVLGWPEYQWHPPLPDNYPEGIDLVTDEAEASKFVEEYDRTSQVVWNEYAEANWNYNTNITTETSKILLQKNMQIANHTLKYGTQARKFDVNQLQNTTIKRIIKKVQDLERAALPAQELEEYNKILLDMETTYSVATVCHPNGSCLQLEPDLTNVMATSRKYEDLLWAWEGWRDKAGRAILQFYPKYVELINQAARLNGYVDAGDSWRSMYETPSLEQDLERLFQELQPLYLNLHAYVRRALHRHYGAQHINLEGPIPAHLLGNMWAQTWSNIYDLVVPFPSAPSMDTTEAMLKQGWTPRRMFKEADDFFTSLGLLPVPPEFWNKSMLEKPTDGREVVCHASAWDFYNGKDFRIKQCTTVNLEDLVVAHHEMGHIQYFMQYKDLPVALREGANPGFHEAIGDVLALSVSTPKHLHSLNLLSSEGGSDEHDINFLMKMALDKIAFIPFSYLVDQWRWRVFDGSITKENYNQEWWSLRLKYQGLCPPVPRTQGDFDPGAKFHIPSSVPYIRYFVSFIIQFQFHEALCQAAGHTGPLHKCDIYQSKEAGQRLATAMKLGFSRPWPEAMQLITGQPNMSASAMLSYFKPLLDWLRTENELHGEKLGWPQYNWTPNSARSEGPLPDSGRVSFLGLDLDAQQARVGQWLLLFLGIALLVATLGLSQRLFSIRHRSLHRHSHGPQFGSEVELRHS

**Q.** With CCN1CC2(COC)C(O)CC(OC)C34C5CC6(O)C(OC)C(O)C(O)(C5C6OC(=O)c5ccccc5)C(C(OC)C23)C14 (centres unmarked) [BAC, Benzoylaconitine] as the compound, how does the “blood pressure versus vehicle group” value ([1]; oral 3 mg kg^−1 once a day, 14 days) read?
**A.** did not significantly differ

**Q.** And the DBP ([1]; oral 10 mg kg^−1 once a day)?
**A.** 119 ± 8 mmHg

**Q.** What about the MAP ([1]; oral 10 mg kg^−1 once a day) of the same compound?
**A.** 136 ± 7 mmHg

**Q.** What about the SBP ([1]; oral 10 mg kg^−1 once a day) of the same compound?
**A.** 154 ± 6 mmHg

**Q.** What about the heart rate ([1]; oral 30 mg kg^−1 once a day, 14 days) of the same compound?
**A.** reduce the heart rate

**Q.** And the DBP ([1]; oral 30 mg kg^−1 once a day)?
**A.** 101 ± 7 mmHg

**Q.** What about the MAP ([1]; oral 30 mg kg^−1 once a day) of the same compound?
**A.** 121 ± 6 mmHg

**Q.** And the SBP ([1]; oral 30 mg kg^−1 once a day)?
**A.** 139 ± 6 mmHg

**Q.** What about the “vascular smooth muscle thickness (hematoxylin and eosin stain of aorta)” value ([1]; oral administration, 14 days) of the same compound?
**A.** reverse smooth muscle remodeling

**Q.** What about the Kd [2] of the same compound?
**A.** 11 µM

**Q.** What about the “level of ACE in blood” value (ACE [3]) of the same compound?
**A.** decreased

**Q.** What about the “level of Ang II in blood” value (Ang II) of the same compound?
**A.** decreased

**Q.** What about the “ACE expression in the aorta” value (ACE [4]) of the same compound?
**A.** significantly downregulated

**Q.** And the “level of IL-6 in serum” value (IL-6)?
**A.** reduced

Reference: PMC8963105, “A Novel Modulator of the Renin–Angiotensin System, Benzoylaconitine, Attenuates Hypertension by Targeting ACE/ACE2 in Enhancing Vasodilation and Alleviating Vascular Inflammation” (Frontiers in Pharmacology, 2022)
